Measured values from ChEMBL document CHEMBL1201862, “PubChem BioAssay data set” (2004).
Active and inactive are the calls of the source. Rule as the data show it, for most assays here: actives have a measured EC50 and inactives only a lower limit.

Key:
[1] = tested on: HeLa; experiment: ATP-based viability loss in HeLa cells – cell-based, CellTiter-Glo luminescence, cherry-pick samples, cytotoxicity control for MITF activator project, dose response (AID 540259); type: functional; settings: Homo sapiens
[2] = Luminescence Cell-Based Dose Confirmation HTS to Identify Activators of 5'UTR Stem-Loop Driven Alpha-Synuclein mRNA Translation in H4 Neuroglioblastoma Cells. [Related pubchem assays: 1829 (Project Summary), 1814 (Primary HTS)]; type: functional
[3] = Luminescence Cell-Based Dose Response HTS to Identify Activators of Luciferase Translation or Activity in H4 […] Cells. [Related pubchem assays: 1829 (Project Summary), 1814 (Primary HTS)]; type: functional
[4] = Luminescence Cell-Based Dose Response to Identify Activators of Luciferase Translation or Activity in H4-C Neuroglioblastoma Cells. [Related pubchem assays: 1829 (Project Summary), 1814 (Primary HTS)]; type: functional
[5] = Luminescence Cell-Based Dose Response to Identify Activators of 5'UTR Stem-Loop Driven Prion Protein mRNA Translation in H4-C Neuroglioblastoma Cells. [Related pubchem assays: 1829 (Project Summary), 1814 (Primary HTS)]; type: functional
[6] = tested on: H4; experiment: Luminescence Cell-Based Dose Response HTS to Identify Activators of 5'UTR Stem-Loop Driven Prion Protein mRNA Translation in H4 Neuroglioblastoma Cells. [Related pubchem assays: 1829 (Project Summary), 1814 (Primary HTS)]; type: functional; settings: Homo sapiens
[7] = Luminescence Cell-Based Dose Confirmation to Identify Activators of 5'UTR Stem-Loop Driven Alpha-Synuclein mRNA Translation in H4 Neuroglioblastoma Cells. [Related pubchem assays: 1829 (Project Summary), 1814 (Primary HTS)]; type: functional
[8] = target: Protein-tyrosine kinase 2-beta (Homo sapiens, UniProt Q14289);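 also: potency of inhibitors of PYK2 kinase phosphorylation of poly-GT substrate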
Sequence of Protein-tyrosine kinase 2-beta (Q14289 whole entry): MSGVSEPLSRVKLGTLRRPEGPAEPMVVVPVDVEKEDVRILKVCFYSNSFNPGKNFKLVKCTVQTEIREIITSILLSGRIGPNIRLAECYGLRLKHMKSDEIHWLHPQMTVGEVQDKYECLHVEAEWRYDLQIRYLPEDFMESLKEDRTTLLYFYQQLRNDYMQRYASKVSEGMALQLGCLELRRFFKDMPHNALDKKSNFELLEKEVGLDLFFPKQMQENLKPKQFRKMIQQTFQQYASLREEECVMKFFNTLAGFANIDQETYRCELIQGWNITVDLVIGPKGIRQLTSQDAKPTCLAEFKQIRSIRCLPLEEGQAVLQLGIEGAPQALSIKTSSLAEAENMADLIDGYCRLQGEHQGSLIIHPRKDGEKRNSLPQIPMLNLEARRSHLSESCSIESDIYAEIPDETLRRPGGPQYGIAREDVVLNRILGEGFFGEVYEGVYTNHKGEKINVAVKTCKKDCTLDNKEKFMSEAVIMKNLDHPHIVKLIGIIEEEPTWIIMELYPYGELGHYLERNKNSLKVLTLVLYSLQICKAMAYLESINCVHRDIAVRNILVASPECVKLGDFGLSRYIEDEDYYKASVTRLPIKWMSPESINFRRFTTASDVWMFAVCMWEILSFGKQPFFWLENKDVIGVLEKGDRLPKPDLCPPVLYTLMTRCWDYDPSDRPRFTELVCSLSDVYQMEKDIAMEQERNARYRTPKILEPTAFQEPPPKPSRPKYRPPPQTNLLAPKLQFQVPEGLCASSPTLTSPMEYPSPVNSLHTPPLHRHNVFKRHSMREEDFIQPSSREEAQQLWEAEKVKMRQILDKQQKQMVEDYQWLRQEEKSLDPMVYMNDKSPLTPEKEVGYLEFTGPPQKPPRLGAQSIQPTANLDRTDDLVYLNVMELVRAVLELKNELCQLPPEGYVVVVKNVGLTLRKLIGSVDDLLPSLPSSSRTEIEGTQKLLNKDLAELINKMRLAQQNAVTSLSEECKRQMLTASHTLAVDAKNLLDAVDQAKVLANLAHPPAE

[9] = target: T1, Streptokinase A (Streptococcus pyogenes serotype M1, UniProt P10520); experiment: viability-normalized secreted streptokinase activity reduction – plasminogen activation absorbance, OD405, dose response (AID 1914); type: functional, Streptococcus pyogenes M1 GAS;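 also: secreted streptokinase activity via plasminogen activation per viability signal from cell pellet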
T1 sequence (P10520 whole entry): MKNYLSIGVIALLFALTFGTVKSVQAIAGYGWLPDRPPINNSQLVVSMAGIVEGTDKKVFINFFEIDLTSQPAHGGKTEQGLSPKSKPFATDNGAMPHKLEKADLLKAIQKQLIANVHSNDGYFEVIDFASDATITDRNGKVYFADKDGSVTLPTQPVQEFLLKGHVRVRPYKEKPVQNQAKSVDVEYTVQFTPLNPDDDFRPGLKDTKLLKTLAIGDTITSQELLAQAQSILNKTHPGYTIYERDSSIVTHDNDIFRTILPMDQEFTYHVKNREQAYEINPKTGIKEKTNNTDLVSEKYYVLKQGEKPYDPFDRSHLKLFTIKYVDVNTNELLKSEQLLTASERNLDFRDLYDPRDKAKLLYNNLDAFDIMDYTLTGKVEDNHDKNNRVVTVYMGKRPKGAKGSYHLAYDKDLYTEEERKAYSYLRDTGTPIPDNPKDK

[10] = tested on: Streptococcus sp. 'group A'; experiment: Streptococcus pyogenes SK(-)GAS viability under kanamycin – luminescence, BacTiterGlo, confirmation, counter-screen for streptokinase expression inhibitor project, dose response (AID 1900); type: functional, organism-based
[11] = tested on: Streptococcus; experiment: GAS UMAA2166 growth inhibition – luminescence, BacTiterGlo, counter-screen for streptokinase expression inhibitor project, dose response (AID 1915); type: functional, organism-based;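 also: potency for reduction of bacterial viability or growth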
[12] = target: T2, Microphthalmia-associated transcription factor (Homo sapiens, UniProt O75030); experiment: reducers of TRPM1 reporter luminescence, concentration series – cell-based, SK-MEL-5, cherry-picked, set 3, MITF inhibitor project, dose response (AID 493073); type: functional;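 also: SK-MEL-5 melanoma cells with luciferase driven by the MITF target TRPM1 promoter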
T2 sequence (O75030 whole entry): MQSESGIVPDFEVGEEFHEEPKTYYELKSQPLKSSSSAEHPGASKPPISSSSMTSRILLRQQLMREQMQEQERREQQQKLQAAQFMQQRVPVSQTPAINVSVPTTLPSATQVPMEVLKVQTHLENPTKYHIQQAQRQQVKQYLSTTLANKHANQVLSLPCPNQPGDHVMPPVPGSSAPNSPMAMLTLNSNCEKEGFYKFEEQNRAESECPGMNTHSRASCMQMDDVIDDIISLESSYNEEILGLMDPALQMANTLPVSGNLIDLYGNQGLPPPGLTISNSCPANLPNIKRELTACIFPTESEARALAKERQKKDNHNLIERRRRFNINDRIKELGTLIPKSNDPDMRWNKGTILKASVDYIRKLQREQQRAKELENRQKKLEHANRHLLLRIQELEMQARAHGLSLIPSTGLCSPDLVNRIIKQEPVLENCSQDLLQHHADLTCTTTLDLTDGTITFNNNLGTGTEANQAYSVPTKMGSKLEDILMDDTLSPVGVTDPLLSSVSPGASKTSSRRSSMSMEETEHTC

[13] = M. tuberculosis H37Rv growth inhibitors, H37Rv strain (AID 1626); type: functional

CS(=O)(=O)N1N=C(c2ccc(Br)cc2)CC1c1ccc2c(c1)OCO2 (stereo not drawn)
active: AC50 [1] 61.3 µM | EC50 [2] 0.174 µM | EC50 [3] < 0.1 µM | EC50 [4] 0.344 µM | EC50 [5] 0.328 µM | EC50 [6] < 0.1 µM | EC50 [7] 0.467 µM

CCOc1cc(/C=C2/NC(=S)NC2=O)ccc1OCc1ccc([N+](=O)[O-])cc1
> 150 µM (not active): EC50 [11]
active: IC50 [8] 3.76 µM | EC50 [9] 8.31 µM | EC50 [10] 3.85 µM | AC50 [12] 8.19 µM

COc1ccc(OCCCC(=O)Nc2cccc(SC)c2)cc1
active: IC50 [13] > 100 µM
